Structures are written as SMILES.

The values that follow come from ChEMBL document CHEMBL1124044, “4-N-hydroxy-L-2,4-diaminobutyric acid. A strong inhibitor of glutamine synthetase” (J Med Chem, 1988).

The subject of test [1] is Glutamine synthetase (Glycine max). The experiment in a line: Percent inhibition was measured on Soybean Glutamine synthetase at 0.5 mM concentration.
For test [2] the test system is unchanged. The experiment in a line: Percent inhibition was measured on Soybean Glutamine synthetase at 0.2 mM concentration.
Test [3] has the same test system. The note with it: at 0.1 mM.
For test [4], the system named is Glutamine synthetase (Ovis aries). The experiment in a line: Percent inhibition was measured on Sheep Brain Glutamine synthetase at 0.2 mM concentration.
Test [5] shares this test system. The experiment in a line: Percent inhibition was measured on Sheep Brain Glutamine synthetase at 0.1 mM concentration.
Test [6] has the same test system. The experiment in a line: Percent inhibition was measured on Sheep Brain Glutamine synthetase at 0.5 mM concentration.
Test [7] has the same test system. The experiment in a line: Percent inhibition was measured on Sheep Brain […] at 0.1 mM concentration.
Test [8] shares this test system. The note with it: at 0.5 mM.
Test [9] deals with Glutamine synthetase (Glycine max). The note with it: at 0.5 mM.
The test system is the same in test [10]. The note with it: at 0.2 mM.
The test system of test [11] is Glutamine synthetase (Ovis aries). The note with it: at 0.2 mM.

For orientation: inhibition means the share of the control response that was lost under treatment. High values mean a strong effect, low ones a weak effect. `NCC(O)CCC(N)C(=O)O` (configuration not stated): the inhibition is 21% in test [1]; 9% in test [2]; 5% in test [3]; 11% in [4]; 5% in test [5]; 22% in [6].

Consider `CNO`, for which the inhibition in test [7] worked out at 0%; in test [8] it was 8%; in [3] it was 0%; in test [9] it was 0%; in test [10], 0%; in test [11], 4%.
